This is an account of results in patent EP4640676A1, “CRYSTAL FORM OF FLUORINE-SUBSTITUTED INDAZOLE COMPOUND AND USE THEREOF” (Sunshine Lake Pharma Co., Ltd., priority 2022, dated 2024).

The nature of series [1]: Crystal form transformation (polymorphic transition). It counts as physicochemical. The settings on record: for crystal form transformation: in solvents such as ethanol.
Series [2] is described as follows: Hygroscopicity test by dynamic vapor sorption (DVS). It counts as physicochemical. As to the method: The hygroscopicity of the present invention was determined using a DVS INT-Std dynamic vapor and gas sorption analyzer from Surface Measurement Systems Ltd. (UK) with the following parameters: humidity test range: 0%-95%, gas flow: 200 mL/min, temperature: 25°C, test points: one measurement point every 5% humidity increase.
An appropriate amount of the test sample was taken, and its hygroscopicity was measured using a dynamic vapor sorption (DVS) instrument. The classification criteria for hygroscopicity characteristics and moisture absorption weight gain (as per Appendix 9103 "Guidelines for Hygroscopicity Testing of Drugs" from the Chinese Pharmacopoeia 2020 Edition, test conditions: 25°C ± 1°C, 80% ± 2% relative humidity (RH)) are described in Table 3 below: Table 3 The description of the hygroscopicity feature and the definition of the hygroscopicity gain

Series [3] in a line: Pharmacokinetics test, oral capsules. It is filed as in vivo. The following applies: male Beagle dogs, 5 mg/kg, figures not given. How it is done: Male Beagle dogs of 8-12 kg were divided into 3 groups, 3 dogs in each group, and capsules containing test samples were orally administered at a dose of 5 mg/kg, and blood was collected at time points of 0.25, 0.5, 1.0, 2.0, 4.0, 6.0, 8.0 and 24 h. Standard curve was plotted based on concentrations of the samples in a suitable range, the concentration of the test sample in the plasma sample was measured and quantified by AB SCIEX API4000-type LC-MS / MS at MRM mode. Pharmacokinetic parameters were calculated according to drug concentration -time curve using a noncompartmental method by WinNonLin 6.3 software.

Series [4] in a line: Solubility test (HPLC). It counts as physicochemical. The following applies: figures not given. As to the method:
The solubility of the present invention was determined using an Agilent 1200 High Performance Liquid Chromatograph DAD/VWD detector with an Agilent XDB-C18 model (4.6 x 50 mm, 5 µm). Detection wavelength of 266 nm, flow rate of 1.0 mL/min, the column temperature of 35 °C, mobile phase A: acetonitrile - 0.01 M ammonium acetate = 10:90 (V: V) analysis methods: acetonitrile - mobile phase A= 70:30 (V: V), running time: 10 minutes.

Series [5] is described as follows: High-humidity stability test. It is filed as physicochemical. The settings on record: 25°C, 90% ± 5% RH, 30 day; for Outward: colour. How it is done: (§1) • (1) High-Temperature Test: Place an appropriate amount of the test sample in a flat weighing bottle, spreading it into a thin layer ≤5 mm thick. Store at 60°C ± 2°C for 30 days. Collect samples at 0, 5, 10, and 30 days for analysis according to the key stability test items. Observe any color changes and determine purity by HPLC. • (2) High-Humidity Test: Place an appropriate amount of the test sample from one batch in a flat weighing bottle, spreading it into a thin layer ≤5 mm thick. Store at 25°C and 90% ± 5% relative humidity (RH) for 30 days. Collect samples at 0, 5, 10, and 30 days for analysis according to the key stability test items. Observe any color changes and determine purity by HPLC. • (3) Light-Exposure Test: Expose the sample to visible light (4500 lx ± 500 lx) and UV light (energy ≥0.7 W·h/m^2) for 30 days. Collect samples at 0, 5, 10, 15, and 30 days for analysis according to the key stability test items. Observe any color changes and determine purity by HPLC. • (4) Accelerated Test: Package an appropriate amount of the test sample from one batch in single-layer PE with aluminum foil. Store at 40°C ± 2°C / 75% ± 5% RH for […]. Collect samples at 0, 1, 2, 3, and 6 months for analysis according to the key stability test items. Observe any color changes and determine purity by HPLC.

Series [6] can be described thus: Light-exposure stability test. It is filed as physicochemical. The settings on record: 30 day; for Outward: colour. How it is done:
as §1

The nature of series [7]: Accelerated stability test. It is filed as physicochemical. The following applies: 40°C ± 2°C / 75% ± 5% RH; for Outward: colour. How it is done: as §1
Series [8] in a line: High-temperature stability test. The following applies: for Outward: colour. It is filed as physicochemical. How it is done: as §1
A short description of series [9]: Accelerated stability test. It counts as physicochemical. The following applies: 40°C ± 2°C / 75% ± 5% RH, 6 month.
The mark [10] stands for this setting: 0 day, common start value of the high-temperature, high-humidity and light-exposure tests, HPLC.
The mark [11] stands for this setting: 0 day, common start value of the three tests.
Where [12] appears, read: High-Temperature, 60°C ± 2°C, 30 day.

Molecules are shown by their SMILES.

Consider `COC(=O)Nc1c(N)nc(-c2nn(Cc3ccccc3F)c3c(F)cccc23)nc1N` [Crystal Form I, methyl (4,6-diamino-2-(7-fluoro-1-(2-fluorobenzyl)-1H-indazol-3-yl)pyrimidin-5-yl)carbamate], for which, in series [1], the crystal form transformation entry is given as “transform into Crystal form II”.
Take `COC(=O)Nc1c(N)nc(-c2nn(Cc3ccccc3F)c3c(F)cccc23)nc1N` [Crystal Form II, methyl (4,6-diamino-2-(7-fluoro-1-(2-fluorobenzyl)-1H-indazol-3-yl)pyrimidin-5-yl)carbamate]: the “Weight Gain at 60% RH (%)” value in series [2] (DVS, 25°C, 60% RH) stood at 0.02%. In addition, in series [2] (DVS, 25°C, 80% RH), the “Weight Gain at 80% RH (%)” value came to 0.05%. Besides, in series [2] (DVS, 25°C, 95% RH), the “Weight Gain at 95% RH (%)” value worked out at 0.18%. Besides, the the hygroscopicity feature entry in series [2] (classification per Chinese Pharmacopoeia 2020, 25°C ± 1°C, 80% ± 2% RH) is “no or negligible hygroscopicity”. The deliquescence entry in series [2] (under high humidity conditions) is “not prone to deliquescence”. In addition, in [3], the pharmacokinetic properties result is given as “excellent pharmacokinetic properties”. In addition, the solubility result in series [4] is on record as “good solubility”. The “stability of the crystal structure” value in series [1] (in contrast to the other crystal forms) is “less prone to polymorphic transition”. In addition, the Outward result in series [5] is “Off-white”; in [6], “Pale yellow”; in series [7] (0 day), “Off-white”; in series [7] (1 month) it was “Off-white”; in [7] (2 month), “Off-white”; in [7] (3 month) it was “Off-white”. In addition, the Outward result in series [8] (setting [11]), in [8] (setting [12]) and in series [9] (colour) was “Off-white” in each case. The remaining at 720 h in series [5] (solid storage, 90% rh, HPLC, read-out: Purity (%)) was 100%; in [6] (solid storage, light exposure, visible light 4500 lx ± 500 lx and UV light, HPLC, read-out: Purity (%)) it was 99.9%; in series [7] (solid storage, 75% rh, 1 month, read-out: Purity (%)), 100%; in series [8] (solid storage, High-Temperature, 60°C ± 2°C, 30 day, HPLC, read-out: Purity (%)) it was 99.9%. Also, the “Purity (%)” value in series [7] (0 day) worked out at 99.96%; in [8] (setting [10]), 99.97%. Moreover, the remaining at 1440 h in [7] (solid storage, 75% rh, 2 month, read-out: Purity (%)) was found to be 100%. For the same molecule, the remaining at 2160 h in [7] (solid storage, 75% rh, 3 month, read-out: Purity (%)) came out at 100%. Also, in series [8] (conclusion over various storage conditions (high-temperature, high-humidity, light-exposure and accelerated tests)), the stability entry was “excellent stability”. The remaining at 4320 h in series [9] (solid storage, 75% rh, read-out: Purity (%)) turned out to be 99.9%.
Turning to `COC(=O)Nc1c(N)nc(-c2nn(Cc3ccccc3F)c3c(F)cccc23)nc1N` [Crystal Form V, methyl (4,6-diamino-2-(7-fluoro-1-(2-fluorobenzyl)-1H-indazol-3-yl)pyrimidin-5-yl)carbamate], the crystal form transformation entry in series [1] is given as “transform into Crystal form II”. Moreover, the polymorphic transition result in series [1] (under high temperature conditions) is recorded as “undergoes polymorphic transition”. Also, the “Purity (%)” value turned out to be 99.51% in [5] (HPLC, 43200 min); 99.36% in series [6] (visible light 4500 lx ± 500 lx and UV light, HPLC, 43200 min); 99.52% in series [8] (setting [10]); 99.47% in [8] (High-Temperature, 60°C ± 2°C, 30 day, HPLC, 43200 min). Moreover, the Outward result in series [5] is “Off-white”; in series [6], “Pale yellow”; in series [8] (setting [11]), “Off-white”; in [8] (setting [12]) it was “Off-white”.
